Measurements: patent publication US6451335B1, “Formulations and methods for providing prolonged local anesthesia” (Euro-Celtique S.A., priority 1998, dated 2002)
Structures can show the parent of a compound that is named as a salt.

Tests used:
rat sciatic nerve [1] = test: Duration of anesthesia of bupivacaine microspheres (LAB) with co-injected additives, hotplate foot withdrawal; assay type: in vivo; conditions: LAB 150 mg/kg perineural
Procedure: In this example, a large number of pharmaceutical agents were tested for activity in augmenting the duration of local anesthetic activity. Bupivacaine-containing microspheres at about 75% loading, by weight, were injected perineurally into rat sciatic nerve at a dose of 150 mg/kg (weight microspheres/weight rat) to dose of approximately 50 mg/nerve. For the injections, needle placement adjacent to the target nerve was optimized by intermittent electrical e stimulation of the target nerve (via the injection needle) with low amplitude current to produce limb flexion. For the injections, the microspheres were suspended in a carrier vehicle suitable for injection. While any pharmaceutically acceptable carrier vehicle is acceptable, for these experiments the carrier vehicle was 1% sodium carboxymethylcellulose and 1% Tween 80 in water.
Compounds to be tested were co-injected with bupivacaine containing microspheres (i.e., mixed as additives into the carrier vehicle) in a range of concentrations. Results are expressed as percent increase in duration relative to non-augmented durations that were obtained in the same animal model.
The duration of anesthesia was measured by the hotplate foot withdrawal method described above in Example 10 and refers to the time necessary for the animal to recover from maximal nerve latency (12 sec) to a latency of 7 seconds, approximately 50% recovery. The results are tabulated in Table 3 below as percent of control.

rat sciatic nerve [2] = test: as above; assay type: in vivo; conditions: read-out: Duration Anesthesia As Percent of Control
rat sciatic nerve [3] = test: Rat sciatic nerve model, sensory testing (hotplate hindpaw withdrawal latency); assay type: in vivo; conditions: for duration of sensory block: augmenting agent with bupivacaine-loaded microspheres vs contralateral side with bupivacaine-loaded microspheres without the agent
Procedure: (§1) The duration of local anesthesia induced by the bupivacaine-loaded microspheres, prepared from PLGA 65:35, with and without the co-administration of an augmenting agent, is tested in a rat sciatic nerve model for localized local anesthesia. […] The latency test determines the time, in seconds, before a rat withdraws its hindpaw from a hotplate set to a safe but uncomfortable temperature (56° C.).
(§2) Selected rats are injected with a solution containing a suspension of bupivacaine-loaded microspheres plus co-administered augmenting agent on one side and injected with a control on the contralateral side so that each rat serves as its own control. Each injection is adjacent to the sciatic nerve. The controls are bupivacaine-loaded microspheres without co-administered augmenting agent and microspheres without any bupivacaine.
As previously discussed, the degree of sensory local anesthesia is measured by determining the time or latency, in seconds, before each rat withdraws its hindpaw from a hotplate set to a safe but uncomfortable temperature. Maximum sciatic nerve sensory blockade is defined as having a latency of about 12 seconds or higher.
Twenty-four rats each receive an injection of bupivacaine-loaded controlled release microspheres into the left or right side, co-administered with a dextran containing injection solution. The contralateral side receive either bupivacaine-loaded microspheres at the same dose, or unloaded microspheres co-administered with a dextran injection solution.
Sensory hot plate latency is measured from the time of the injections until the latency declined to under 2 seconds.

rat sciatic nerve [4] = test: Rat sciatic nerve model, motor testing (4-point scale); assay type: in vivo; conditions: augmenting agent with bupivacaine-loaded microspheres vs contralateral side with bupivacaine-loaded microspheres without the agent
Procedure: as §1, §2
The degree of motor blockade is measured by scoring the appearance of the affected foot for the signs of loss of motor tone. The assessment is conducted as follows using a 4-point scale based on visual observation: (1) normal appearance, (2) intact dorsiflexion of foot with an impaired ability to splay toes when elevated by the tail, (3) toes and foot remained plantar flexed with no splaying ability, and (4) loss of dorsiflexion, flexion of toes, and impairment of gait.
Motor blockade is scored until the hind paws of motor blockades rats returned to a normal appearance.
Sensory and motor testing is conducted according to sections A and B, respectively, of EXAMPLE 10, above. Using the experimental protocol of section C of EXAMPLE 10, 24 rats are tested.
Sensory and motor testing is conducted according to sections A and B, respectively, of EXAMPLE 10, above.

[5] = immediate release vasoconstrictor, at best; cited from earlier work
superficial radial nerve = test: Local anesthesia to pin prick after injection around the superficial radial nerve in normal volunteers; assay type: in vivo, humans; conditions: n=6; EDLA 3 ml (37.5 mg total) or aqueous bupivacaine HCl 50 mg, single injection
Procedure: Finally, the two compartment release of bupivacaine from EDLA results in rapid onset and prolonged duration of local anesthesia in humans. Normal volunteers (n=6) received a single injection of 3 ml EDLA (37.5 mg total) or aqueous bupivacaine HCl (50 mg) around the superficial radial nerve. Onset of local anesthesia to pin prick over the anatomical snuff box was <3 hours with aqueous bupivacaine with duration of action 6-8 hours. Onset of local anesthesia with EDLA was <3 hours with duration of action 48-72 hours.

[6] = Microdialysis of bupivacaine at i.m. injection site in quadriceps muscle; assay type: in vivo, Sprague-Dawley rat; conditions: 3 mg i.m., quadriceps femoris
Procedure: To determine whether bupivacaine is released from EDLA in two phases in-vivo, bupivacaine HCl and EDLA was injected into the quadriceps muscles of rats in which microdialysis catheters had been previously placed. Bupivacaine HCl was injected i.m. into the quadriceps femoris of a Sprague-Dawley rat around the area of a microdialysis catheter. […] This rapid escape is consistent with the very short duration of anesthetic action aqueous bupivacaine has in this model. Diffusion of bupivacaine, quantitated by HPLC, was from a single compartment that followed first order kinetics, k=0.25±0.04 min^−1. (SS=3.613). […] The first compartment was apparently identical to the mechanism of escape of soluble bupivacaine HCl, since the rate constant was essentially identical (k=0.22/minute). […] Calibration was determined in vivo by delivery of a 10 ug/ml solution of bupivacaine. […] Excellular bupivacaine was measured in the dialysate every 10 minutes. In vivo extracelluar concentration was determined from the dialysate concentration by factoring in the microdialysis probe recovery which had been previously determined. […]

Compound	Duration Anesthesia As Percent of Control (rat sciatic nerve [1]; % Additive Conc. 0.05)	Duration Anesthesia As Percent of Control (rat sciatic nerve [1]; % Additive Conc. 0.5)	also measured
COc1cc2c(c(OC)c1OC)-c1ccc(OC)c(=O)cc1[C@@H](NC(C)=O)CC2 [Colchicine]			Duration Anesthesia As Percent of Control (rat sciatic nerve [1]; % Additive Conc. 0.01): 104% of Control; Duration Anesthesia As Percent of Control (rat sciatic nerve [1]; % Additive Conc. 1.0): 277% of Control; Duration Anesthesia As Percent of Control (rat sciatic nerve [1]; % Additive Conc. 10): toxic; response vs control in vivo at 0.1 % (rat sciatic nerve [2]; % Additive Conc. 0.1, Placebo (in place of LAB)): 0%; response vs control in vivo at 10 % (rat sciatic nerve [2]; % Additive Conc. 10, no LAB): 0%
Dextran			duration of sensory block (rat sciatic nerve [3]): significantly longer duration of sensory block; sensory blockade (rat sciatic nerve [3]; unloaded microspheres with dextran alone): no sensory blockade; Duration Anesthesia As Percent of Control (rat sciatic nerve [1]; % Additive Conc. 3): 46-144% of Control; duration of motor block (rat sciatic nerve [4]): significantly increased duration of motor block
CCCC(CCC)C(=O)O [Valproic Acid]	152% of Control	138% of Control	
Nc1ccncc1 [Aminopyridine (4-AP), Aminopyridine]	77% of Control		Duration Anesthesia As Percent of Control (rat sciatic nerve [1]; % Additive Conc. 0.11): 92% of Control; Duration Anesthesia As Percent of Control (rat sciatic nerve [1]; % Additive Conc. 1.09): 131% of Control
Cc1c(N(C)C)c(=O)n(-c2ccccc2)n1C [Aminopyrine]	146% of Control	62% of Control	
CN[C@@H](C)[C@H](O)c1ccccc1 [ephedrine]			duration of sensory block (rat sciatic nerve [3]): significantly longer duration of sensory block; duration of motor block (rat sciatic nerve [4]): significantly increased duration of motor block
CC(=O)[C@H]1CC[C@H]2[C@@H]3CC[C@H]4C[C@H](O)CC[C@]4(C)[C@H]3C(=O)C[C@]12C [Alphaxalone]	169% of Control	123% of Control	
CNC[C@H](O)c1ccc(O)c(O)c1 [epinephrine]			duration of sensory block (rat sciatic nerve [3]): significantly longer duration of sensory block; prolongation of local anesthetic activity [5]: ≤ 1 h; duration of motor block (rat sciatic nerve [4]): significantly increased duration of motor block
O=C1NC(=O)C(c2ccccc2)(c2ccccc2)N1 [5,5-diphenylhydantoin]			Duration Anesthesia As Percent of Control (rat sciatic nerve [1]; % Additive Conc. 0.11): 152% of Control; Duration Anesthesia As Percent of Control (rat sciatic nerve [1]; % Additive Conc. 1.09): 138% of Control
Nc1cc(N2CCCCC2)nc(N)[n+]1[O-] [Minoxidil]	54% of Control	218-265% of Control	
CC1=NS(=O)(=O)c2cc(Cl)ccc2N1 [Diazoxide]	138% of Control	109% of Control	
CCCCN1CCCCC1C(=O)Nc1c(C)cccc1C (centres unmarked) [bupivacaine HCl]			duration of action of local anesthesia (superficial radial nerve): 6 to 8 h; k, first order escape of bupivacaine from i.m. injection site (single compartment) [6]: 0.25 ± 0.04 min⁻¹
CC(=O)O[C@H]1C(=O)[C@@]2(C)[C@H]([C@H](OC(=O)c3ccccc3)[C@]3(O)C[C@H](OC(=O)[C@H](O)[C@@H](NC(=O)c4ccccc4)c4ccccc4)C(C)=C1C3(C)C)[C@]1(OC(C)=O)CO[C@@H]1C[C@@H]2O [Taxol]		82% of Control	Duration Anesthesia As Percent of Control (rat sciatic nerve [1]; % Additive Conc. 0.11): 104% of Control; Duration Anesthesia As Percent of Control (rat sciatic nerve [1]; % Additive Conc. 1.09): 108% of Control
CC[N+](CC)(CC)CC [Tetraethylammonium]	95% of Control	123% of Control	
CC(N)Cc1ccccc1 (centres unmarked) [amphetamine]			duration of sensory block (rat sciatic nerve [3]): significantly longer duration of sensory block; duration of motor block (rat sciatic nerve [4]): significantly increased duration of motor block
Clc1cccc(Cl)c1N=C1NCCN1 [Clonidine]	122% of Control	71% of Control	
CN1C(=O)CN=C(c2ccccc2)c2cc(Cl)ccc21 [Diazepam]	231% of Control	203% of Control	
NC(=NCc1ccccc1)NC(=O)c1nc(Cl)c(N)nc1N [Benzamil]	83% of Control	154% of Control	
C[C@@H]1O[C@@H](O[C@H]2C[C@@H](O)[C@]3(CO)[C@H]4[C@H](O)C[C@]5(C)[C@@H](C6=CC(=O)OC6)CC[C@]5(O)[C@@H]4CC[C@]3(O)C2)[C@H](O)[C@H](O)[C@H]1O [Ouabain]	154% of Control	178% of Control	
CC[C@]1(O)C[C@@H]2CN(CCc3c([nH]c4ccccc34)[C@@](C(=O)OC)(c3cc4c(cc3OC)N(C)[C@H]3[C@@](O)(C(=O)OC)[C@H](OC(C)=O)[C@]5(CC)C=CCN6CC[C@]43[C@@H]65)C2)C1 [Vinblastine]	158% of Control		Duration Anesthesia As Percent of Control (rat sciatic nerve [1]; % Additive Conc. 0.11): 37% of Control; Duration Anesthesia As Percent of Control (rat sciatic nerve [1]; % Additive Conc. 1.09): 40% of Control
C[C@]12CC[C@@H](O)C[C@@H]1CC[C@@H]1[C@@H]2C(=O)C[C@@]2(C)[C@H]1CC[C@]2(O)C(=O)CO [Allotetrahydrocortisone, allotetrahydrocortisone]	100% of Control	117% of Control	
COc1ccc2c(c1)CC[C@@H]1[C@@H]2CC[C@]2(C)[C@@H](NCCCCCCN3C(=O)C=CC3=O)CC[C@@H]12 [U-73, 122, 1[6-[[17-beta-3-methoxyestra-1,3,5(10)-triene-17-yl]amino]hexl]1-H-pyrrole-2,5-dione]	106% of Control	115% of Control	
